Assay results reported in ChEMBL document CHEMBL1144583, “Specificities of acetoxy derivatives of coumarins, biscoumarins, chromones, flavones, isoflavones and xanthones for acetoxy drug: protein transacetylase” (2007).

Assays:
Rattus norvegicus [1] = organism: Rattus norvegicus; experiment: Effect on TAase activity assessed as inhibition of GST in liver microsome at 50 uM; assay type: microsomes
Rattus norvegicus [2] = organism: Rattus norvegicus; experiment: Effect on TAase activity assessed as activation of liver microsomal NADPH cytochrome P450 at 5 uM
Bone marrow cell = experiment: Inhibition of micronuclei formation in benzene-induced in Wistar Albino rat bone marrow cells at 300 mg/ kg, ip after 1 hr; assay type: functional; settings: route intraperitoneal
Rattus norvegicus [3] = organism: Rattus norvegicus; experiment: Inhibition of liver microsomal EROD at 25 uM

Row | SMILES | inhibition (Rattus norvegicus [1]) [%] | Activity (Rattus norvegicus [2]) [%] | inhibition in vivo at 300 mg/kg (Bone marrow cell) [%] | inhibition (Rattus norvegicus [3]) [%]
1 | CC(=O)Oc1cc2c(=O)oc3c(OC(C)=O)c(OC(C)=O)cc4c(=O)oc(c1OC(C)=O)c2c34 [ELLAGIC ACID TETRAACETATE] | 10.1 | 16.1 | 39.6 | –
2 | CC(=O)Oc1ccc2c(c1)OC(=O)CC2c1ccccc1 (stereo unspecified) | 3.31 | 6.77 | – | –
3 | CC(=O)Oc1ccc2c(C(C/C=C/C#CC(C)(C)C)S(=O)(=O)c3ccccc3)cc(=O)oc2c1OC(C)=O (stereo unspecified) | 10.4 | 15.9 | – | –
4 | CC(=O)Oc1ccc2c(=O)cc(-c3ccccc3)oc2c1 | 3.6 | 6.9 | – | 16.4
5 | CC(=O)Oc1cc(OC(C)=O)c2c(=O)c(C(C)=O)c(C)oc2c1 | 6.68 | 16.7 | – | –
6 | CC(=O)Oc1ccc2c(=O)c(-c3ccccc3)c(C)oc2c1 | 3.1 | 7.1 | – | 16.1
7 | CC(=O)Oc1ccc2c(OC(C)=O)c(Cc3c(OC(C)=O)c4ccc(OC(C)=O)c(OC(C)=O)c4oc3=O)c(=O)oc2c1OC(C)=O | 10.1 | 17.2 | 37.9 | 39.3
8 | CC(=O)Oc1ccc2c(C)cc(=O)oc2c1 | 7.1 | 14.5 | 44.6 | 30.8
9 | CC(=O)Oc1ccc2c(C(C/C=C/C#CC(C)(C)C)S(=O)(=O)c3ccccc3)cc(=O)oc2c1 (stereo unspecified) | 4.01 | 7.6 | – | –
10 | CCCCCCC(c1cc(=O)oc2cc(OC(C)=O)ccc12)S(=O)(=O)c1ccccc1 (stereo unspecified) | 3.96 | 7.17 | – | –
11 | CC(=O)Oc1cc(C(C)=O)c2c(C)cc(=O)oc2c1 | 7.65 | 15.6 | – | –
12 | CC(=O)Oc1cccc2oc3ccccc3c(=O)c12 | 3.43 | 5.06 | – | –
13 | CC(=O)Oc1ccc2c(C)cc(=O)oc2c1OC(C)=O | 15.2 | 25.8 | 65 | 58.4
14 | CC(=O)Oc1ccc(OC(C)=O)c2c(=O)c3ccccc3oc12 | 12.7 | 21.7 | – | 41.9
15 | CC(=O)Oc1ccc2c(=O)c(C(C)=O)c(C)oc2c1 | 6.03 | 15.1 | – | 31.5
16 | CC(=O)Oc1ccc2c(=O)c(-c3ccccc3)coc2c1OC(C)=O | 6.89 | 14.5 | – | 32.4
17 | CC(=O)Oc1ccc2c(=O)c(C(C)=O)c(C)oc2c1OC(C)=O | 15.3 | 27.6 | – | –
